Laboratory results reported in patent publication US9241497B2, “Method and apparatus for treatment of food products” (The United States of America, as represented by the …, priority 2005, dated 2016).

Experiments:
Type in all cases: cell-based, Listeria monocytogenes
[1] = system: L. monocytogenes; test: Lethality studies: ACS and LAE sprayed into shrink-wrap bags, inoculated hams, 24 h at 4° C.; settings: ca. 7.0 log10 CFU per ham
Description: (§1) Bacterial Strains: Using a procedure described previously (Porto, A. C. S., et al., Journal of Food Protection, 65: 308-315 (2002)), approximately equal numbers of each of the following five strains of L. monocytogenes were used as a cocktail in this study: (i) Scott A (serotype 4b, clinical isolate); (ii) H7776 (serotype 4b, frankfurter isolate); (iii) LM-101M (serotype-4b, beef and pork sausage isolate); (iv) F6854 (serotype 1/2a, turkey frankfurter isolate); and (v) MFS-2 (serotype 1/2a, environmental isolate from a pork processing plant). For each experiment isolates were passed twice in brain heart infusion (BHI; Difco Laboratories, Detroit, Mich.) broth at 37° C. so that cells would be in the stationary phase for inoculating hams. Stock cultures were maintained by storage in BHI plus 10% (wt/vol) glycerol in 1.5-ml portions in cryovials and held at −80° C.
Lethality Studies: To evaluate the lethality of acidic calcium sulfate (ACS; Safe2O-RTE 01, Mionix Corp., Naperville, Ill.) and lauramide arginine ester (LAE; Ethyl-N-dodecanoyl-L-arginate hydrochloride; CAS No. 60372-77-2; Mirenat-N, Vedeqsa, Barcelona, Spain; also known as lauric arginate), “table brown” hams (water, ground ham trims, brine, dextrose, sugar, sodium phosphate, sodium erythorbate, and sodium nitrite; ca. 3 pounds each ham) were processed and vacuum-sealed by a commercial processor (Hatfield Quality Meats, Hatfield, Pa.). The hams were boxed, transported back to the laboratory, and stored at 4° C. for up to 7 days. Each ham was aseptically removed from its original packaging, spot inoculated with 2 mL of the cocktail using a pipette to achieve a target level of ca. 7.0 log10 CFU per ham, and then transferred to a high-performance shrink-wrap bag (B2570T, Cryovac, Duncan, S.C.). Just prior to introducing the hams, the inside of each shrink-wrap bag was sprayed with 0, 2, 4, 6, or 8 mL of either a 1:1 (1 part ACS: 1 part dH2O) or 1:2 (1 part ACS:2 parts dH2O) solution of ACS or a 5% (5 parts LAE:95 parts dH2O) or 10% (10 parts LAE:90 parts dH2O) solution of LAE. The antimicrobials for these experiments were introduced via a 24-ounce plastic spray bottle (Koch Supplies, Kansas City, Mo.). Each bag was then vacuum sealed to 950 mBar using a Multivac A300/16 vacuum-packaging unit (Sepp Haggemüller K G, Wolfertschwenden, Germany), submerged in hot (88° C.) water for approximately 5 seconds to shrink the bag, and transferred to a 4° C. incubator and held for 24 h. In a single trial, three hams were analyzed for each concentration and volume of ACS and LAE tested after 24 h of refrigerated storage.
Microbiological Analyses: Surviving L. monocytogenes were enumerated using the USDA/ARS package rinse method (Luchansky J. B., et al., Journal of Food Protection, 65: 567-570 (2002)) and spread-plating 250 uL of the resulting rinse fluid or dilutions thereof onto duplicate modified Oxford agar plates (MOX; Cook, L. V., Isolation and identification of Listeria monocytogenes from red meat, poultry, egg, and environmental samples, Chapter 8, In: USDA/FSIS Microbiology Laboratory Guidebook (3rd ed., Revision 2), Washington, D.C. (1999)) using a sterile cell spreader and incubating for 48 h at 37° C. Listeria numbers were expressed as log10 CFU per ham with each package containing a single ham; the detection limit was 1.48 log10 CFU/ham. […]

[2] = system: L. monocytogenes; test: Validation studies of initial post-process lethality on hams; settings: for average decrease in pathogen levels compared to untreated control hams: ca. 7.0 log10 CFU per ham, after 24 h at 4° C.
Description: as §1
Validation Studies: To validate the initial post-process lethality of ACS and LAE, a fresh batch of the same formulation of hams was obtained from the same commercial manufacturer as described previously. The hams were spot inoculated with 2 mL of the L. monocytogenes cocktail to achieve a target level of ca. 7.0 log10 CFU per ham, transferred to shrink-wrap bags (Cryovac) that were previously sprayed on the inside with 0, 2.5, 4.5, or 6.5 mL of a 1:2 solution of ACS or a 5% solution of LAE, vacuum sealed, submerged in hot (88° C.) water, and placed at 4° C. In each of three trials, three hams were analyzed at each concentration and volume of ACS and LAE tested after 24 h of refrigerated storage.
(§2) Microbiological Analyses: Surviving L. monocytogenes were enumerated using the USDA/ARS package rinse method (Luchansky J. B., et al., Journal of Food Protection, 65: 567-570 (2002)) and spread-plating 250 uL of the resulting rinse fluid or dilutions thereof onto duplicate modified Oxford agar plates (MOX; Cook, L. V., Isolation and identification of Listeria monocytogenes from red meat, poultry, egg, and environmental samples, Chapter 8, In: USDA/FSIS Microbiology Laboratory Guidebook (3rd ed., Revision 2), Washington, D.C. (1999)) using a sterile cell spreader and incubating for 48 h at 37° C. Listeria numbers were expressed as log10 CFU per ham with each package containing a single ham; the detection limit was 1.48 log10 CFU/ham. Periodically, isolates were retained from randomly selected samples and confirmed as L. monocytogenes following the recommended/standard USDA/FSIS protocol (Cook, 1999).

[3] = system: L. monocytogenes; test: Shelf-life studies: outgrowth on hams during refrigerated storage up to 60 days; settings: for reduction of pathogen levels relative to untreated samples: after 24 h at 4° C.; for levels of L. monocytogenes compared to untreated control hams (statistical analyses): all volumes tested
Description: as §1
Shelf-Life Studies: To evaluate the efficacy of ACS and LAE over the expected refrigerated shelf life of the product, a fresh batch of the same formulation of hams was obtained from the same commercial manufacturer as described previously. For these studies, hams were spot inoculated with 2 mL of the L. monocytogenes cocktail to achieve a target level of either 3.0 or 7.0 log10 CFU per ham. At each inoculation level one portion of the hams was transferred to shrink-wrap bags that were previously sprayed on the inside with 4, 6, or 8 mL of a 1:2 solution of ACS applied using a commercial spraying apparatus (AutoJet Spray System #45570-22-10-120V, Spraying Systems Co., Wheaton, Ill.) and commercial bagging apparatus (Taped Bag Loader #BL189, Cryovac). An otherwise similar portion of the inoculated hams was transferred to shrink-wrap bags that just prior to introduction of the hams were sprayed with 4, 6, or 8 mL of a 5% LAE solution using the commercial spraying and bagging apparatus. Control hams were also spot inoculated with either 3.0 or 7.0 log10 CFU of L. monocytogenes per ham and were transferred to shrink-wrap bags that were not sprayed with either compound. As described previously, hams were vacuum-sealed, submerged in hot (88° C.) water, and stored at 4° C. Hams were analyzed 1, 7, 14, 21, 28, 40, and, 60 days post-inoculation. For each of two trials, three hams were analyzed at each sampling point for both inoculation levels and for both chemicals tested.
as §2

Which “decrease in L. monocytogenes levels” value ([1]; 2 mL of 5% solution of LAE) does the source give for `CCCCCCCCCCCC(=O)N[C@@H](CCCNC(=N)N)C(=O)OCC.Cl` [LAE, Ethyl-N-dodecanoyl-L-arginate hydrochloride] here?
Its value is “ca. 3.3 log10 CFU/ham”.

And the “decrease in L. monocytogenes levels” value ([1]; 4 mL of 5% solution of LAE)?
The value was “ca. 6.5 log10 CFU/ham”.

And the “decrease in L. monocytogenes levels” value ([1]; 6 mL of 5% solution of LAE)?
Its value is roughly 5.6 log10 CFU/ham.

What about the “decrease in L. monocytogenes levels” value ([1]; 8 mL of 5% solution of LAE) of the same compound?
The value was “ca. 6.5 log10 CFU/ham”.

What about the “decrease in pathogen levels” value ([1]; 10% solution of LAE, all 4 application volumes (2, 4, 6, 8 mL)) of the same compound?
The value was “ca. 6.5 log10 CFU/ham”.

What about the “average decrease in pathogen levels compared to untreated control hams” value (“average decrease in pathogen levels” below) ([2]; 2.5 mL of 5% solution of LAE) of the same compound?
Its value is “ca. 4.6 log10 CFU/ham”.

And the “average decrease in pathogen levels” value ([2]; 4.5 mL of 5% solution of LAE)?
The value was roughly 5.9 log10 CFU/ham.

What about the “reduction of levels of L. monocytogenes on the surface of hams (conclusion)” value ([2]; 5% solution of LAE, within 24 h at 4° C.) of the same compound?
The value was “at least 5.0 log10 CFU/ham”.

And the “average decrease in pathogen levels” value ([2]; 6.5 mL of 5% solution of LAE)?
Its value is roughly 6.1 log10 CFU/ham.

And the “levels of the pathogen within 24 h” value ([3]; 4, 6, and 8 mL of 5% solution of LAE, inoculum ca. 3.0 log10 CFU/ham, 4° C., detection limit 1.48 log10 CFU/ham)?
Its value is “below the limit of detection”.

And the “increase of L. monocytogenes levels after 60 days” value ([3]; 4 and 6 mL of 5% LAE solution, inoculum ca. 3.0 log10 CFU/ham, 4° C.)?
The value was “ca. 2.0 log10 CFU/ham”.

What about the “increase of pathogen levels thereafter (after 24 h) within 60 days” value (“increase of pathogen levels thereafter” for short) ([3]; 4 mL of 5% solution of LAE, inoculum ca. 7.0 log10 CFU/ham, 4° C.) of the same compound?
Its value is “ca. 4.6 log10 CFU/ham”.

And the “reduction of pathogen levels relative to untreated samples” value ([3]; 4 mL of 5% solution of LAE, inoculum ca. 7.0 log10 CFU/ham)?
The value was roughly 5.1 log10 CFU/ham.

What about the “increase of pathogen levels thereafter” value ([3]; 6 mL of 5% solution of LAE, inoculum ca. 7.0 log10 CFU/ham, 4° C.) of the same compound?
The value was roughly 3.0 log10 CFU/ham.

What about the “reduction of pathogen levels relative to untreated samples” value ([3]; 6 mL of 5% solution of LAE, inoculum ca. 7.0 log10 CFU/ham) of the same compound?
The value was roughly 5.4 log10 CFU/ham.

And the “levels of L. monocytogenes after 60 days” value ([3]; 8 mL of 5% LAE solution, inoculum ca. 3.0 log10 CFU/ham, 4° C., detection limit 1.48 log10 CFU/ham)?
Its value is “remained below the detection limit”.

And the “increase of pathogen levels thereafter” value ([3]; 8 mL of 5% solution of LAE, inoculum ca. 7.0 log10 CFU/ham, 4° C.)?
Its value is roughly 2.0 log10 CFU/ham.

And the “reduction of pathogen levels relative to untreated samples” value ([3]; 8 mL of 5% solution of LAE, inoculum ca. 7.0 log10 CFU/ham)?
The value was roughly 5.5 log10 CFU/ham.

What about the “duration of control of further outgrowth of L. monocytogenes” value ([3]; initial inoculum of ca. 7.0 log10 CFU/ham, refrigerated storage) of the same compound?
The value was no less than 28 days.

And the “levels of L. monocytogenes compared to untreated control hams (statistical analyses)” value ([3]; inoculum ca. 3.0 log10 CFU/ham, day 1 through day 40)?
Its value is “appreciably lower”.

And the “levels of L. monocytogenes compared to untreated control hams (statistical analyses)” value ([3]; inoculum ca. 7.0 log10 CFU/ham, day 1 through day 60)?
The value was “appreciably lower”.
